From patent US20220160652A1, “USE OF VITAMIN K IN COMBINATION WITH ANTICOAGULANTS” (KAYDENCE PHARMA AS, priority 2019, published 2022) come the findings set out here.

Entries after “also recorded” stand apart in the source; their conditions may differ.

Assay [1] has as its system VSMCs. Nature of the assay: Warfarin-induced oxidative stress in VSMCs, effect of vitamin K2 (DCFDA). The conditions noted are these: 5 hours incubation. The assay is classed as cell-based. On the procedure: It is known that the level of reactive oxygen species in cells can be measured by measuring the conversion of 2′,7′—dichlorofluorescein diacetate (DCFDA) to the fluorescent dye 2′,7′-dichlorofluorescein (DCF). The fluorescence generated by cells subjected to DCFDA is directly proportional to the amount of oxidized DCFDA to DCF.
This study was performed to determine if vitamin K2 (MK-7) reduces warfarin-induced oxidative stress. To perform the study, VSMCs (10,000 cells/well) were plated in a 96-well plate and left to adhere overnight. Next, cells were incubated for 24 hours with 100 μM warfarin. The next day, […] DCFDA was added to the cells for 1 hour. The cells were then incubated for 5 hours with normal medium (baseline), vitamin K2 (MK-7), or warfarin. Fluorescence was measured and fluorescence intensity was normalized for cell count.

For assay [2], the system named is VSMCs. Nature of the assay: Hypoxia (CoCl2) induced oxidative stress in VSMCs (DCFDA). Format: cell-based. To be noted: 10 μM, after 50 μM CoCl2 for 19 hours. On the procedure:
This study was performed to determine whether intracellular oxidative stress in VSCMs is derived from mitochondrial dysfunction. To perform this study, VSMCs were incubated with cobalt chloride, a known stabilizer of HIF1a. Cobalt chloride binding to HIF1a prevents the degradation of HIF1a and thus results in a cellular hypoxia state. HIF1a has been implicated in cancer biology as well as a number of other pathophysiologies, specifically in areas of vascularization and angiogenesis, energy metabolism, cell survival, and tumor invasion. Under normal circumstances, after injury, HIF1a is degraded by the enzyme prolyl hydroxylase (PHD). The continued up-regulation of HIF1 a (mimicked by cobalt chloride) promotes tumor growth and metastasis through its role in initiating angiogenesis and regulating cellular metabolism to overcome hypoxia. Hypoxia promotes apoptosis in both normal and tumor cells. Additionally, hypoxia generates significant intracellular oxidative stress.
To perform the study, VSMCs (10,000 cells/well) were plated in a 96-well plate and left to adhere overnight. Next, the medium was changed to a medium supplemented with 50 μM CoCl2 for 19 hours. The next day, cells were washed and incubated for 1 hour with 20 μM DCFDA in the presence of a vehicle (solvent for CoCl2 and vitamin K2 (MK-7)/UQ10), 10 μM vitamin K2 (MK-7), or 10 μM UQ10 in medium. The medium was then changed to a medium supplemented with vehicle, vitamin K2 (MK-7)/UQ10, or CoCl2, and fluorescent was measured for 6 hours. Fluorescence intensity was normalized for cell count.

For the compound `CC(C)=CCC/C(C)=C/CC/C(C)=C/CC/C(C)=C/CC/C(C)=C/CC/C(C)=C/CC/C(C)=C/CC1=C(C)C(=O)c2ccccc2C1=O` [vitamin K2 (MK-7)], the “warfarin-induced oxidative stress in VSMCs” value in the assay with VSMCs [1] (after 24 hours 100 μM warfarin) is given as “counteracted the warfarin-induced oxidative stress; also recorded: counteracts intracellular oxidative stress”. Also, the “normal oxidative stress in VSMCs” value with VSMCs [1] (normal conditions) is “reduced not only normal oxidative stress; also recorded: counteracts intracellular oxidative stress”. Besides, the “hypoxia induced oxidative stress (counteraction)” value with VSMCs [2] is recorded as “seems to counteract hypoxia induced oxidative stress”.
